This note sets out measurements from patent US11479529B2, “Compounds with antimicrobial activity” (The Hong Kong Polytechnic University, priority 2018, dated 2022).

In brackets after ≈: the same amount, converted by molar mass. Several values for one entry are separate records, joined by “and”; a condition that tells them apart may be missing. Equal entries are not always repeated.

The target of one series is T1, NusB-NusE interaction (Bacillus subtilis, UniProt P54520).
T1 construct: 6xHis (N); made in house; host or cells: E. coli BL21 (DE3) pLysS
The series is described as follows: ELISA-based inhibitory assay of NusB-NusE heterodimer formation. It is filed as binding, B. subtilis. The conditions noted are these: NusB coated plate, GST-tagged NusE probe; read-out: IC50, inhibition of the NusB-NusE interaction. The method, then: Finally, to establish MC4's mode of action at the molecular level, an enzyme-linked immunosorbant assay-based inhibitory assay was performed to assess the in vitro inhibition of NusB-NusE heterodimer formation by MC4.^24 Purified NusB was used to coat the 96-well plate, and GST-tagged NusE was used as the probe. […] With the change in the phenyl acetylene group to phenols, the IC50 values of the corresponding MC4 analogues increased, while deletion of this terminal triple bond or replacing by methyl or chloride caused a reduced IC50. When p-nitrophenol was modified to o-nitrophenol, the IC50 values increased, probably because of the involvement of the phenol group in the binding interaction with NusB Y81 (Table 3).
Protein overproduction and purification. B. subtilis NusB (wild type and mutant) and NusE-GST were overproduced from plasmids (Table 2) and purified using a similar approach to that described previously.^45 Purified proteins were dialyzed into 20 mM KH2PO4, 150 mM NaCl, 30% glycerol, pH 7.8 and stored at […].
ELISA-based assays. These assays were performed as described previously,^41 except NusB was used to coat the NUNC MaxiSorp™ 96-well plates and GST-tagged NusE used as the probe.
Background: In an ELISA, binding on a coated surface is turned into a signal by an enzyme label.

A short description of the next series: Cytotoxicity assay, A549. It is filed as cell-based, human. To be noted: human, A549 lung carcinoma cells. Here is the method:
(§1) Cytotoxicity assay was performed as detailed previously^43 except A549 lung carcinoma and HaCaT immortalized human keratinocytes were used in this study.

Series [1] in a line: Cytotoxicity assay, HaCaT. To be noted: HaCaT immortalized human keratinocytes. It is filed as cell-based. The method, then: as §1
The subject of series [2] is community-acquired MRSA strain USA300. Nature of the series: Microdilution assay (MIC) against community-acquired MRSA strain USA300. In kind it is cell-based. To be noted: Staphylococcus aureus, read-out: minimum inhibitory concentration (MIC). The method, then:
(§2) The antimicrobial activity of the seven compounds against community-acquired MRSA strain USA300 were first screened. […] With a molecular weight of 266.3, MC4 has been reported to be of use only to form a metal complex dye in optical layers for optical data recording.^26 The antimicrobial activities of MC4 against a panel of representative strains of pathogens were then tested.
(§3) Bacterial Strains and Chemicals. The following bacterial strains were used in this study for the microdilution assay: Enterococcus faecalis ATCC 29212, Klebsiella pneumonia ATCC 700603, Acinetobacter baumannii ATCC 19606, Pseudomonas aeruginosa PA01, Enterobacter cloacae ATCC 13047, E. coli ATCC 25922, Proteus vulgaris ATCC 6380, and S. aureus USA300, ATCC 25923, ATCC 29213, ST22, ST30, ST45, ST59, ST239, JE-2, BAA44. E. coli strain DH5a (Gibco BRL) was used in this study for cloning and BL21 (DE3) pLysS^23 was used for protein overproduction. 5-fluorouracil, rifampicin and other antibiotics used in the microdilution assay were purchased from SigmaAldrich. Compounds MC1-7 were purchased from MolPort.
(§4) Antibacterial activity test. Microdilution assay was performed according to the Clinical & Laboratory Standards Institute recommendations.^42 Serial 2-fold dilutions of the tested compounds and antibiotic controls were made from 256 μg/ml to 0.5 μg/ml. DMSO was included as a negative control.
Background: In broth dilution the organism is exposed to a series of concentrations in liquid medium.

The next series has as its system S. aureus 25923. Nature of the series: Microdilution assay (MIC) against control strain S. aureus 25923. The conditions noted are these: Staphylococcus aureus. In kind it is cell-based. The method, then: as §2, §3, §4
For series [3], the system named is healthcare acquired MRSA ST239. Nature of the series: Microdilution assay (MIC) against healthcare acquired MRSA ST239. It is filed as cell-based, Staphylococcus aureus. The method, then:
as §2, §3, §4

The subject of the next series is A549 lung carcinoma. The series is described as follows: Cytotoxicity assay, A549. It is filed as cell-based, human. To be noted: mammalian cell lines (Table 1: A549, HaCaT), compared to 5-fluorouracil. The method, then:
as §1

The subject of series [4] is S. aureus ATCC 25923 cells. The series is described as follows: DNA, protein and rRNA quantitation in treated cells. In kind it is cell-based, Staphylococcus aureus. The conditions noted are these: one-quarter MIC, exponential growth, versus control cells. The method, then:
The level of macromolecules in S. aureus ATCC 25923 cells during exponential growth due to MC4 treatment were analyzed.
DNA, protein and rRNA quantitation. MC4, oxacillin and rifampicin at ¼ MIC level were added to S. aureus strain ATCC 25923 in LB medium at early log phase (OD595=0.2), which was then grown to mid-log phase (OD595==0.5). For DNA and protein quantitation, 1 ml cells were harvested and treated with 10 mg/ml lysozyme+0.5 mg/ml lysostaphin at RT for 1 hr before centrifugation at 13000 g/min for 3 min. The supernatant was discarded and cells lysed with 600 μl Nuclei Lysis Solution (Promega/Genomic DNA Purification Kit) for 5 min, followed by gentle sonication. The amount of DNA was quantified with Qubit dsDNA BR (broad range) and protein quantified with NanoOrange™ Protein Quantitation Kit (ThermoFisher). For rRNA quantitation, 1 ml culture was collected and treated with RNAProtect (Qiagen), before total RNA was extracted with an RNeasv Mini Kit (Qiagen). DNase I treatment was performed with a TURBO DNA-free Kit (ThermoFisher). The extracted RNA was subjected to Agilent 2100 analysis, and the level of major rRNA (the sum of 16S+23S rRNA) as percentage of total RNA. The values were compared across each treatment group. All experiments were repeated three times.

Series [5] has as its target T2, B. subtilis NusB wild type protein (Bacillus subtilis, UniProt P54520).
T2 construct: 6xHis (N); made in house; host or cells: E. coli BL21 (DE3) pLysS
Nature of the series: Isothermal titration calorimetry, NusB wild type. It is filed as binding. To be noted: ITC. The method, then: (§5) The interaction between MC4 and NusB was also biophysically quantified. […] Further experiments will be performed to resolve the structure of NusB in complex with MC4 for target validation, as well as structure-based lead optimization.
(§6) Isothermal calorimetric titration (ITC). ITC experiments were performed as described previously.^41 For compound testing, a 50 mM stock made up in DMSO was diluted to 500 μM in ITC buffer (50 mM KH2PO4, 150 mM NaCl, pH 7.4). All proteins were dialysed into ITC buffer and were supplemented with the same concentration of DMSO (1% v/v) to minimize buffer miss-match. MC4 was then titrated against 50 μM NusB wild type and mutants as described previously^41 using 1% DMSO in ITC buffer as the negative control.

Another series deals with T3, NusE (Bacillus subtilis, UniProt P21471).
T3 construct: 3C protease site + GST (C); made in house; host or cells: E. coli BL21 (DE3) pLysS
Nature of the series: Isothermal titration calorimetry, NusE. In kind it is binding, B. subtilis. On the technique in general: ITC needs no label: the signal is the heat of the interaction.

The test system of series [6] is NusB variants (Y18A, D76A, and D81A). Nature of the series: Isothermal titration calorimetry, NusB variants. It is filed as binding, B. subtilis. The method, then:
as §5, §6

In general, IC50 refers to the concentration that inhibits the measured activity by half. In general, CC50 refers to the concentration at which the toxic effect on the cells reaches its halfway point. Broadly, the Kd is the free concentration of one partner at which half of the binding sites on the other are occupied at equilibrium, for simple one-to-one binding. Higher therefore signals a looser complex.

T1 sequence (P54520 whole entry): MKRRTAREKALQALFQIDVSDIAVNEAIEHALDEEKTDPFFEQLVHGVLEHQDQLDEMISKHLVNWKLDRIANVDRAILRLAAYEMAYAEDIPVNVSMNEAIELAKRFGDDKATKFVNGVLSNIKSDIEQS
T2 sequence (P54520 whole entry): as above

In the case of `O=[N+]([O-])c1ccc(O)c(/C=N/c2ccc(Cl)cc2)c1` [MC4-7, 2-{(E)-[(4-chlorophenyl)imino]methyl}-4-nitrophenol], at NusB-NusE interaction, the concentration for half-maximal inhibition (IC50) worked out at 1639 ± 12.7 µM.
Take `Cc1cccc(/N=C/c2cc([N+](=O)[O-])ccc2O)c1` [MC4-5, 2-{(E)-[(3-methylphenyl)imino]methyl}-4-nitrophenol]: the IC50 at NusB-NusE interaction is 971 ± 11.6 µM.
The same measure, in the same setting: under `O=[N+]([O-])c1ccc(O)c(C=Nc2ccccc2)c1` [MC4-4, 4-nitro-2-[(phenylimino)methyl]phenol] stands 147 ± 17.9 µM; under `O=[N+]([O-])c1ccc(O)c(/C=N/c2cccc(O)c2)c1` [MC4-8, 2-{(E)[(3-hydroxyphenyl)imino]methyl}-4-nitrophenol], 0.00692 µM.
In the case of `O=c1[nH]cc(F)c(=O)[nH]1` [5-fluorouracil, reference compound], the 50% cytotoxic concentration (CC50) in the series “Cytotoxicity assay, A549” was 0.00562 ± 2e-06 µM; in series [1] it was less than 0.001 µM.
Consider `C#Cc1cccc(/N=C/c2cc([N+](=O)[O-])ccc2O)c1` [MC4, (E)-2-[[(3-ethynylphenyl)imino]methyl]-4-nitrophenol], for which the MIC in [2] stood at 64 µg/mL (≈ 240 µM). The compound also gave an MIC in the series on S. aureus 25923 of 8 µg/mL (≈ 30 µM). In addition, the MIC in series [3] was found to be 16 µg/mL (≈ 60.1 µM). This compound also displayed a half-maximal cytotoxic concentration (CC50) in “Cytotoxicity assay, A549” of 183 ± 7.71 µM. Besides, the “cytotoxicity against mammalian cell lines” value with A549 lung carcinoma is “did not show significant cytotoxicity”. In series [1], this compound yielded a CC50 of 695.1 ± 5.95 µM. In series [4], the DNA level result is given as “none of the treatment affected the DNA level”, the protein level result is “significant reduction in the protein level” and the “rRNA level (16S+23S)” value was “significant reduction in the rRNA level”. Further, the IC50 at NusB-NusE interaction is ~34.7 µM and 34.7 µM. In [5], this compound registered an N of 0.988±0.076, a ΔH of -7.141 ± 0.9398 kcal/mol and a ΔS of −1.81 cal/mol/deg. Also, the dissociation constant Kd in [5] (one-site binding mode) amounted to 1.45 ± 0.55 µM. Moreover, on NusE, the “Binding to NusE by ITC” value is “could not be detected”. Also, the “Binding to NusB variants by ITC” value in series [6] is given as “could not be detected”.
In the case of `O=[N+]([O-])c1ccc(O)c(/C=N/c2ccc(O)cc2)c1` [MC4-6, 2-{(E)-[(4-hydroxyphenyl)imino]methyl}-4-nitrophenol], at NusB-NusE interaction, the IC50 stood at 0.00815 µM.
Same read-out and setting: for `O=[N+]([O-])c1cccc(/C=N/c2ccccc2)c1O` [MC4-1, 2-nitro-6-[(E)-(phenylimino)methyl]phenol] the value was 14.4 ± 2.59 µM.
Consider `Cc1onc(-c2ccccc2)c1C(=O)N[C@@H]1C(=O)N2[C@@H]1SC(C)(C)[C@@H]2C(=O)O` [oxacillin, reference compound], for which, in series [4], the DNA level entry is “none of the treatment affected the DNA level”, the protein level entry is recorded as “slightly higher than those of control cells” and the “rRNA level (16S+23S)” value is “slightly higher than those of control cells”.
